Measured values from patent US3939263A, “Methods of combatting insects and acarina using oxygenated derivatives of S-(tert-bulythio)methyl O,O-diethyl phosphorodithioate and phosphorothioate” (priority 1974, dated 1976).

Assays:
Cotton Boll Weevil [1] = experiment: Cotton Boll Weevil, treated cotton cotyledon, 2-day mortality; assay type: in vivo, Anthonomus grandis Boheman; details: 48 h, 2 days, read-out: % Kill, Cotton Boll Weevil
Procedure: Cotton Boll Weevil -- Anthonomus grandis Boheman
A cotton plant with cotyledons expanded is dipped for 3 seconds with agitation in 35/65% aqueous acetone mixture containing 100 ppm. of test compound and set in the hood to dry. One cotyledon is removed from the plant and placed in a 4-inch petri dish containing a moist filter paper on the bottom and 10 adult weevils. After 2 days at 80°F., and 50% r.h., mortality counts are made, prodding each insect to distinguish dead ones from those "playing dead."

Two-Spotted Spider Mite = experiment: Two-Spotted Spider Mite, dipped infested lima bean plants; assay type: in vivo, Tetranychus urticae (Koch); details: Tetranychus urticae, read-out: % Kill, Two-Spotted Spider Mite
Procedure: Two-Spotted Spider Mite -- Tetranychus urticae (Koch)
Sieva lima bean plants, with primary leaves 3 to 4 inches long, are infested with about 100 adult mites per leaf 4 hours before use in this test, in order to allow egg-laying before treatment. The infested plants are dipped for 3 seconds with agitation into a 35/65% water/acetone mixture containing 1000 ppm. of test compound and the plants set in the hood to dry. After 2 days at 80°F., and 50% r.h., the adult mite mortality is estimated on one leaf under a 10X stereoscopic microscope. The other leaf is left on the plant an additional 5 days and then examined at 10X power to estimate the kill of eggs and of newly hatched nymphs, giving a measure of ovicidal and residual action, respectively.

Southern Armyworm [2] = experiment: Southern Armyworm, dipped lima bean leaf; assay type: in vivo, Spodoptera eridania (Cramer); details: Spodoptera eridania, 48 h, 2 days, read-out: % Kill, Southern Armyworm
Procedure: Southern Armyworm -- Spodoptera eridania (Cramer)
A Sieva lima bean plant with just the primary leaves expanded to 3 to 4 inches is dipped for 3 seconds with agitation in a 35/65% water/acetone mixture containing 1000 ppm. of test compound and set in the hood to dry. Following this, one leaf is placed in a 4-inch petri dish which has a moist filter paper in the bottom and ten third-instar armyworm larvae about three-eighths inch long. The dish is covered and held at 80°F., and 50% r.h. After 2 days, mortality counts and estimates of the amount of feeding are made. Compounds showing partial kill and/or inhibition of feeding are held for an extra day for further observations.

Mexican Bean Beetle = experiment: Mexican Bean Beetle, dipped lima bean leaves; assay type: in vivo, Epilachna varivestis Mulsant; details: Epilachna varivestis, read-out: % Kill, Mexican Bean Beetle
Source text: Mexican Bean Beetle -- Epilachna varivestis Mulsant
Sieva lima bean plants (two per pot) with primary leaves 3 to 4 inches long, are dipped in a 35/65% water/acetone mixture containing 100 ppm. of test compound and set in the hood to dry. One leaf is removed from a plant and placed in a 4-inch petri dish containing a moist filter paper on the bottom and 10 last-instar larvae (13 days from hatching). The day after treatment, another leaf is removed from the plant and fed to the larvae after removing the remains of the original leaf. Two days after treatment, the third leaf is fed to the larvae, this usually being the last needed. The fourth leaf is used on the third day after treatment if the larvae have not finished feeding. The test is now set aside and held until adults have emerged, usually in about nine days after treatment began. After emergence is complete, each dish is examined for dead larvae, pupae or adults; deformed pupae or adults; larval-pupal intermediates or pupal-adult intermediates; or any other interference with normal molting, transformation and emergence of pupae or adults.

Southern Armyworm [3] = experiment: Soil Systemic Insecticide test on corn, Southern Armyworm; assay type: in vivo, Spodoptera eridania Cramer; details: Spodoptera eridania, 48 h; 100 ppm in soil; corn foliage after three weeks; 2 days; read-out: % Kill, Systemic Insecticide, Southern Armyworm
Procedure: (§1) Soil Systemic Insecticide Tests
(§2) Corn and cotton seed (three seeds each) are planted in treated soil (containing about 100 ppm. of the compound). Thirty milliliters of treated soil are placed in a peat container 5 × 5 × 5.5 cm., and three seeds each of corn and cotton planted. The containers are filled with an additional 30 ml. of treated soil. The treatments are removed to the greenhouse maintained about 26°C. without supplementary light. Water is supplied as needed. After three weeks, foliage of the corn is clipped and placed in glass petri dishes (90 mm. × 10 mm.) with moist filter (9 cm. Whatman No. 1) paper and ten third-instar southern armyworm (Spodoptera eridania Cramer) larvae about 8 mm. long. The dishes are covered and placed in the holding room with constant light at 26.7°C. and 60% r.h. for 2 days, when mortality counts are made.

Cotton Boll Weevil [4] = experiment: Soil Systemic Insecticide test on cotton, Cotton Boll Weevil; assay type: in vivo, Anthonomus grandis Boheman; details: 48 h; 100 ppm in soil; cotton leaves after three weeks; 2 days; read-out: % Kill, Systemic Insecticide, Cotton Boll Weevil
Procedure: as §1, §2
The cotyledonary leaves of the cotton are clipped after three weeks and placed in glass petri dishes (90 mm. × 10 mm.) with moist filter (9 cm. Whatman No. 1) paper and ten adult boll weevils (Anthonomus grandis Boheman). The dishes are covered, placed in the holding room with constant light at 26.7°C. and 60% r.h. for 2 days, when mortality counts are made.

Bean Aphid = experiment: Bean Aphid, sprayed nasturtium plants; assay type: in vivo, Aphis fabae Scopoli; details: Aphis fabae, 24 h, one day, read-out: % Kill, Bean Aphid
Procedure: Bean Aphid -- Aphis fabae Scopoli
Two-inch fiber pots, each containing a nasturtium plant 2 inches high and infested with 100 to 150 aphids 2 days earlier are placed on a 4 […] an Atomizer at 20 psi. air pressure. The spray tip is held about 6 inches from the plants and the spray directed so as to give complete coverage of the aphids and the plants. The sprayed plants are laid on their sides on white enamel trays. Mortality estimates are made after one day at 70°F., 50% r.h.

[5] = tested on: Boophilus microplus ticks; experiment: Tick larvae, simulated spray in pipette; assay type: in vivo; details: Rhipicephalus microplus, 48 hours, read-out: % Kill, Ticks
Procedure: Ticks -- Boophilus microplus
In these tests, 20 larvae are enclosed in a pipette sealed at one end with a gauze material. A 10% acetone/water solution with the drug in it is then sucked through the pipette with a vacuum hose, thus simulating a spray system. The ticks are then held for 48 hours and mortality is determined.

[6] = Mammalian toxicity, LD50 in mice; assay type: in vivo, male albino mice of the CFI strain; details: mouse, in vivo; male albino mice, corn oil, 0.5 ml./kg.
Procedure: For the tests reported in Table II, 20 male albino mice of the CFI strain, weighing approximately 18 grams to 20 grams are selected. The phosphates are readied for administration by preparing a solution or dispersion in corn oil (Mazola), the concentration of which is adjusted so that the total volume of the dose is 0.5 ml./kg. in every case. The initial solution is prepared by deciding upon the maximum dosage in mg./kg. to be administered and preparing 10 ml. of this solution of such a concentration that the desired dosage in mg./kg. is delivered when 0.5 ml. of the solution is administered for 20 grams of mouse body weight. Serial dilutions differing by a factor of two are then prepared for each lower dosage level. LD50 stands for the lethal dose in mg./kg. which kills 50% of the mice.

SMILES	mortality at 100 ppm (Cotton Boll Weevil [1])	mortality at 100 ppm (Two-Spotted Spider Mite)	mortality at 1000 ppm (Two-Spotted Spider Mite)	mortality at 100 ppm (Southern Armyworm [2])	mortality at 1000 ppm (Southern Armyworm [2])	mortality at 10 ppm (Mexican Bean Beetle)	mortality at 100 ppm (Mexican Bean Beetle)	mortality at 100 ppm (Southern Armyworm [3])	mortality at 100 ppm (Cotton Boll Weevil [4])	mortality at 1 ppm (Bean Aphid)	mortality at 10 ppm (Bean Aphid)	mortality at 100 ppm (Bean Aphid)	mortality at 33 ppm [5]	LD50 [6]	mortality at 100 ppm ([5]; 100 ppm)
CCOP(=S)(OCC)SC[S+]([O-])C(C)(C)C (stereo not drawn) [O,O-diethyl S-(tert-butylsulfinyl)methyl phosphorodithioate, reference compound]	100%	100%	100%	70%	100%	80%	90%	100%	100%	100%	100%	100%	0%	3.4 mg/kg	
CCOP(=S)(OCC)SCS(=O)(=O)C(C)(C)C [O,O-diethyl S-(tert-butylsulfonyl)methyl Phosphorodithioate]	90%	100%	100%	100%	100%		100%	0%	90%	100%	100%	100%		14 mg/kg	
CCOP(=O)(OCC)SCS(=O)(=O)C(C)(C)C [O,O-diethyl S-(tert-butylsulfonyl)methyl Phosphorothioate]	90%	100%	100%	100%	100%	70%	90%	100%	100%	100%	100%	100%	0%	3.4 mg/kg	
CCOP(=O)(OCC)SC[S+]([O-])C(C)(C)C (stereo not drawn) [O,O-diethyl S-(tert-butylsulfinyl)methyl Phosphorothioate]	90%	100%	100%	100%	100%	100%	100%	100%	100%	100%	100%	100%		1.1 mg/kg	100%
